# Key:
# Format in all cases: cell-based
# [1] = test system: Staphylococcus aureus, ATCC 29737; assay: MIC, NCCLS/CLSI guidelines (Example 5), strain C; details: relative to wildtype Plectasin; average of two independent experiments
# Description: (§1) Plectasin wild-type (SEQ ID NO: 1) and several variants of Plectasin were expressed and purified. The Minimal Inhibitory Concentration (MIC) was determined to test for their antimicrobial activity following the NCCLS guidelines from CLSI (Clinical and Laboratory Standards Institute; formerly known as National Committee for Clinical and Laboratory Standards).
# (§2) The peptides were tested against the following strains: • A: Staphylococcus aureus, ATCC 29213; • B: Staphylococcus aureus, ATCC 25923; • C: Staphylococcus aureus, ATCC 29737; • D: Staphylococcus aureus, MRSA ST5 (2001), multi-resistant clinical human isolate from Statens Serum Institut, Denmark; • E: Staphylococcus aureus, MRSA ST80 (2003), multi-resistant clinical human isolate from Statens Serum Institut, Denmark.
# (§3) All MIC values represent an average of two independent experiments; and all results in Table 5 are expressed relative to wildtype Plectasin:
# (§4) 0: >100% of Plectasin wildtype MIC; 1: 80-100% of Plectasin wildtype MIC; 2: 50-80% of Plectasin wildtype MIC; 3: <50% of Plectasin wildtype MIC.
# [2] = test system: Staphylococcus aureus, MRSA ST80 (2003); assay: MIC, NCCLS/CLSI guidelines (Example 5), strain E; details: relative to wildtype Plectasin; average of two independent experiments
# Description: as §1, §2, §3, §4
# [3] = test system: Staphylococcus aureus, MRSA ST5 (2001); assay: MIC, NCCLS/CLSI guidelines (Example 5), strain D; details: relative to wildtype Plectasin; average of two independent experiments
# Description: as §1, §2, §3, §4
# [4] = test system: Staphylococcus aureus, ATCC 29213; assay: MIC, NCCLS/CLSI guidelines (Example 5), strain A; details: relative to wildtype Plectasin; average of two independent experiments
# Description: as §1, §2, §3, §4
# [5] = test system: panel of 6 different strains of Staphylococcus aureus; assay: Average MIC, NCCLS/CLSI guidelines using caMHB (Example 6); details: average over 6 S. aureus strains, duplicate; MIC above 32 counted as 64; read after 18-24 hours at 37° C.
# Description: A large number of antimicrobial peptides of the invention were tested against a panel of 6 different strains of Staphylococcus aureus listed below:
# Staphylococcus aureus, ATCC29213, MSSA, NCCLS reference strain; Staphylococcus aureus, ATCC25923, MSSA, NCCLS reference strain; Staphylococcus aureus, ATCC29737, MSSA; Staphylococcus aureus, E33235, MSSA; Staphylococcus aureus, 698-01, MRSA ST5, Str, Kan, Oxa; Staphylococcus aureus, 566-03, MRSA ST80, Oxa, Tet, Fus, Kan.
# The staphylococci were exposed to the following peptide concentrations: 32; 16; 8; 4; 2; 1; 0.5; 0.25; 0.13; […]; and 0.03 microgram/mL. All peptides were purified, HPLC quantified and the concentrated peptides (>160 micrograms/mL) were diluted to 160 micrograms/mL in peptide dilution buffer (0.1% BSA, 0.01% Acetic Acid).
# The MIC determination was done essentially as described by NCCLS/CLSI guidelines using caMHB. The MICs were read after 18-24 hours of 37° C. incubations and recorded along with the CFU in the table below.
# A total number of 95 antimicrobial peptides of the invention were evaluated in duplicate against the 6 bacterial strains described above.
# In the majority of the double determinations (93%), the MIC varied <2 fold. An average MIC is tabulated below. If the MIC was above 32 micrograms/mL, a value of 64 was used to calculate the average.
# [6] = test system: Staphylococcus carnosus ATCC51365; assay: Yeast screening assay: radial diffusion assay of yeast supernatants; set-up: key: An activity of 3 is better than Plectasin; An activity of 2 corresponds to the activity of Plectasin; 1 is worse than Plectasin; details: yeast supernatant, clearing zone in radial diffusion assay
# In short: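 Activity scores (1 worse, 2 equal, 3 better than wild-type plectasin) come from the size of the radial-diffusion clearing zone against S. carnosus at 5×10^5 cfu/mL. Test samples were culture supernatants of yeast transformants induced with galactose for 3 days at 30 °C, and plates were developed at 37 °C with MTT.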
# [7] = test system: Staphylococcus aureus, ATCC 25923; assay: MIC, NCCLS/CLSI guidelines (Example 5), strain B; details: relative to wildtype Plectasin; average of two independent experiments
# Description: as §1, §2, §3, §4
Substance,"Relative MIC, strain C [1]","Relative MIC, strain E [2]","Relative MIC, strain D [3]","Relative MIC, strain A [4]",Average MIC [5],Activity (antimicrobial activity relative to the activity of plectasin) [6],"Relative MIC, strain B [7]"
D9S + Q14L: variant of Plectasin (SEQ ID NO: 1) (GFGCNGPWSEDDMLCHNHCKSIKGYKGGYCAKGGFVCKCY),3 (<50% of Plectasin wildtype MIC),3 (<50% of Plectasin wildtype MIC),3 (<50% of Plectasin wildtype MIC),3 (<50% of Plectasin wildtype MIC),3 micrograms/mL,,
GFGCAGPWDEDDMQCHNHCKSIKGYKGGYCAKGGFVCKCY [Mutation N5A],,,,,29 micrograms/mL,3,
GFGCGGPWDEDDMQCHNHCKSIKGYKGGYCAKGGFVCKCY [Mutation N5G],,,,,24 micrograms/mL,3,
GFGCNGPWDEDDMFCHNHCKSIKGYKGGYCAKGGFVCKCY [Mutation Q14F],3 (<50% of Plectasin wildtype MIC),3 (<50% of Plectasin wildtype MIC),2 (50-80% of Plectasin wildtype MIC),1 (80-100% of Plectasin wildtype MIC),5 micrograms/mL,3,
GFGCNGPWDEDDMGCHNHCKSIKGYKGGYCAKGGFVCKCY [Mutation Q14G],,,,,18 micrograms/mL,3,
GFGCNGPWDEDDMQCHNHCKSIKGYKGGYCAKGGFLCKCY [Mutation V36L],,,,,26 micrograms/mL,3,
GFGCNGPWDEDDMQCHNHCKSIKGYKGGYCNKGGFVCKCY [Mutation A31N],,,,,9 micrograms/mL,3,
GFGCNGPWDEDDMQCHSHCKSIRGYKGGYCAKGGFVCKCY [N17S + K23R],,,,,14 micrograms/mL,2,
GFGCNGPWDEDDMSCHNHCKSIKGYKGGYCAKGGFVCKCY [Mutation Q14S],,,,,21 micrograms/mL,3,
GFGCNGPWDEDDMVCHNHCKSIKGYRGGYCAKGGFVCKCY [Q14V + K26R],,,,,12 micrograms/mL,3,
GFGCNGPWDEDDRQCHNHCKSIKGYKGGYCAKGGFVCKCY [Mutation M13R],,,,,9 micrograms/mL,3,
GFGCNGPWDEDDSQCHNHCKSIKGYKGGYCAKGGFVCKCY [Mutation M13S],,,,,24 micrograms/mL,3,
GFGCNGPWDEDDTQCHNHCKSIKGYKGGYCAKGGFVCKCY [Mutation M13T],,,,,26 micrograms/mL,2,
GFGCNGPWDEGDMQCHNHCKSVKGYKGGYCAKGGFVCKCY [D11G + I22V],,,,,17 micrograms/mL,3,
GFGCNGPWGEDDMQCHNHCKSIKGYKGGYCAKGGFVCKCY [Mutation D9G],,,,,21 micrograms/mL,3,
GFGCNGPWKEDDMQCHNHCKSIKGYKGGYCAKGGFVCKCY [Mutation D9K],,,,,7 micrograms/mL,3,
GFGCNGPWSEDDMQCHNHCKSIKGYKGGYCAKGGFVCKCY [Mutation D9S],3 (<50% of Plectasin wildtype MIC),,2 (50-80% of Plectasin wildtype MIC),2 (50-80% of Plectasin wildtype MIC),7 micrograms/mL,3,3 (<50% of Plectasin wildtype MIC)
GFGCNGPWVEDDMQCHNHCKSIKGYKGGYCAKGGFVCKCY [Mutation D9V],,,,,30 micrograms/mL,3,
GFGCSGPWDEDDMQCHNHCKSIKGYKGGYCAKGGFVCKCY [Mutation N5S],,,,,24 micrograms/mL,3,
M13F + Q14K + K26R: variant of Plectasin (SEQ ID NO: 1) (GFGCNGPWDEDDFKCHNHCKSIKGYRGGYCAKGGFVCKCY),3 (<50% of Plectasin wildtype MIC),3 (<50% of Plectasin wildtype MIC),3 (<50% of Plectasin wildtype MIC),3 (<50% of Plectasin wildtype MIC),6 micrograms/mL,,
M13L + Q14K + K26R: variant of Plectasin (SEQ ID NO: 1) (GFGCNGPWDEDDLKCHNHCKSIKGYRGGYCAKGGFVCKCY),3 (<50% of Plectasin wildtype MIC),,3 (<50% of Plectasin wildtype MIC),3 (<50% of Plectasin wildtype MIC),9 micrograms/mL,,
N5R + M13V: variant of Plectasin (SEQ ID NO: 1) (GFGCRGPWDEDDVQCHNHCKSIKGYKGGYCAKGGFVCKCY),3 (<50% of Plectasin wildtype MIC),3 (<50% of Plectasin wildtype MIC),2 (50-80% of Plectasin wildtype MIC),3 (<50% of Plectasin wildtype MIC),5 micrograms/mL,,
N5S + M13W + N17R: variant of Plectasin (SEQ ID NO: 1) (GFGCSGPWDEDDWQCHRHCKSIKGYKGGYCAKGGFVCKCY),3 (<50% of Plectasin wildtype MIC),3 (<50% of Plectasin wildtype MIC),3 (<50% of Plectasin wildtype MIC),3 (<50% of Plectasin wildtype MIC),2 micrograms/mL,,
"N17T: antimicrobial peptide of the invention, Plectasin variant (GFGCNGPWDEDDMQCHTHCKSIKGYKGGYCAKGGFVCKCY) [Mutation N17T]",,,,,21 micrograms/mL,,
"S21A: antimicrobial peptide of the invention, Plectasin variant (GFGCNGPWDEDDMQCHNHCKAIKGYKGGYCAKGGFVCKCY) [Mutation S21A]",,,,,17 micrograms/mL,,
"S21N: antimicrobial peptide of the invention, Plectasin variant (GFGCNGPWDEDDMQCHNHCKNIKGYKGGYCAKGGFVCKCY) [Mutation S21N]",,,,,11 micrograms/mL,,
"S21V: antimicrobial peptide of the invention, Plectasin variant (GFGCNGPWDEDDMQCHNHCKVIKGYKGGYCAKGGFVCKCY) [Mutation S21V]",,,,,26 micrograms/mL,,

# — US20100120690A1, “Polypeptides Having Antimicrobial Activity and Polynucleotides Encoding Same” (Novozymes Adenium Biotech A/S, priority 2005, published 2010)
